The values below come from patent US11266645B2, “Methods for treating lymphoma” (Alexion Pharmaceuticals, Inc., priority 2018, dated 2022).

Holding throughout (format): in vivo, human
For data set [1], the system named is serum markers of inflammation. Nature of the data set: Serum protein markers of inflammation (multiplexed luminex). Here is the method: Whole blood for isolation of serum was collected prior to dosing on days 1, 8, and 28 to measure changes in protein markers of inflammation and immune function. Serum samples were snap-frozen on dry ice immediately following its separation and stored at −80° C. Samples were analyzed using a multiplexed luminex-based technology (Myriad RBM, Austin, Tex.), utilizing the companies ImmunoMap (40 analytes) and InflammationMap (45 analytes) platforms. Serum from healthy donors was used as control.
The data were analyzed using the statistical language R and the accessory packages ggplot2 (Wickham, H., Elegant Graphics for Data Analysis. 2016: Springer-Verlag) and drc (Ritz, C., et al., Dose-Response Analysis Using R. PLoS One, 2015. 10(12): p. e0146021). For cell signaling assays, percent inhibition was determined by normalizing the receptor-induced phosphorylation events mean fluorescent intensity (MFI) to that of pre-dose receptor-induced MFI. The resulting relative activities were analyzed by nonlinear regression to a 3-parameter log-logistic function with an upper and lower limit set at 100 and 0%. For the analysis of immune and inflammation markers in serum, the varying concentration units were converted to a common scale in pg/mL. Values below and in excess of the detection limit were replaced by half the detection limit and the upper limit, respectively. For missing values, the median value for each marker from the treatment group was imputed. Statistically significant differences between the healthy and patient serum marker at all cycles (Cycle 1 Day 1, Cycle 1 Day 8, and Cycle 2 Day 1) were detected by paired t test. Dimension reduction of expression of the biomarker table in healthy and patient serum was performed using linear discriminant analysis, as is implemented in R. For the biomarkers and tumor response, reduction in biomarker after treatment was normalized to that before treatment and correlated to the maximal tumor response (growth or reduction), representing the ratio of minimal tumor area following treatment and tumor area before treatment. The significance of the relation between maximum tumor response and change in a specific biomarker was evaluated using Spearman-Rank-correlation and p value.

The nature of data set [2]: Cerdulatinib plasma concentration in patients (LC-MS/MS). Here is the method:
Blood samples were collected on K2EDTA for the determination of total cerdulatinib plasma concentrations on day 1 prior to dosing and at 0.5, 1, 2, 3, 4, 6, 8, and 12 hours post-dose; on Day 8 at pre-dose and 2 hours post-dose; on Day 15 pre-dose; and on Day 28 (end of the first treatment cycle) at pre-dose and at 0.5, 1, 2, 3, 4, 6, 8, and 12 hours post-dose. A liquid chromatography-tandem mass spectrometry (LC-MS/MS) method was developed and validated by Alturas Analytics, Inc. (Moscow, Id.) for the determination of cerdulatinib concentration in human plasma. […] J Pharmacol Exp Ther, 2014. 351(3): p. 538-48. Chromatographic separations were performed over a Phenomenex Synergi Polar-RP column (50×2.0 mm, 4 μm) (Phenomenex, Torrance, Calif., USA). MS/MS analysis was performed using a Sciex API-4000 triple quadrupole mass spectrometer with a TurboSpray ion source (Applied Biosystems, Foster City, Calif., USA). The peak area of the m/z 394→360 cerdulatinib product ion was measured against the peak area of the m/z 397→363 internal standard product ion. Intra-assay precision (% CV) and accuracy (% bias) were within 0.8% to 4.5% and −10.1% to 7.8%, respectively, and inter-assay precision (% CV) and accuracy (% bias) were 2.0% to 3.8% and −7.3% to 6.0%, respectively.

Data set [3] relates to CLL tumor cell surface CD5, CD69, CD86, CXCR4. Nature of the data set: CLL tumor cell surface marker expression by FACS. The following applies: C2D1 vs C1D1, two CLL patients. On the procedure:
For PD assessments, serial blood samples were drawn into lithium-heparin vacutainer tubes on Day 1 prior to dosing and again at 0.5, 1, 2, and 4 hours post-dose; on Day 8 at pre-dose and 2 hours post-dose; and Day 28 prior to dosing. Multiple assays were performed using the Day 1 and Day 8 PD samples. SYK-mediated BCR signaling in whole blood was measured prior to and post-dosing by stimulating 100 μL whole blood with 2 μL of anti-human IgD (IgG fraction) and 10 μg anti-human IgM for 10 minutes at 37° C., measuring the induction of pSYK Y525/526, pAKT S473, and pERK Y204. Similarly, whole blood was stimulated with 10 ng/mL of IL-2 (JAK1/3-dependent), IL-4 (JAK1/3-dependent), IL-6 (JAK1/TYK2-dependent) or GM-CSF (JAK2-dependent) for 20 minutes, measuring the induction of pSTAT5 Y694 in T-cells and NK cells, the induction of pSTAT6 Y641 in B cells, T-cells, NK cells, and monocytes, the induction of pSTAT3 Y705 in monocytes, B cells, and T-cells, and the induction of pSTAT5 Y694 in monocytes, respectively. The technical details for these assays were described in Coffey, G., et al., J Pharmacol Exp Ther, 2014. 351(3): p. 538-48. With blood samples from the CLL patients only, tumor cell surface expression of CD5, CD69, CD86, and CXCR4 pre-dose on days 1 and 28 were monitored. The recommended volume of antibodies were applied directly to 100 μL whole blood and incubated for 1 hour at room temperature. Afterwards, 4 mL of BD Lyse/Fix reagent was added to the blood to lyse red blood cells and fix the remaining leukocytes, followed by washing and FACS analysis. For each assay, data were collected using an LSR II instrument (BD Bioscience, San Jose, Calif.) and analyzed using Flowjo software (Flowjo LLC, Ashland, Oreg.). Data were normalized to the induction of each parameter prior to dosing on day 1 to generate percent inhibition post-dosing.

Take `CCS(=O)(=O)N1CCN(c2ccc(Nc3ncc(C(N)=O)c(NC4CC4)n3)cc2)CC1` [cerdulatinib, 4-(cyclopropylamino)-2-((4-(4-(ethylsulfonyl)piperazin-1-yl)phenyl)amino)pyrimidine-5-carboxamide]: the “serum MIP30, CRP, and VCAM1” value in data set [1] (CLL/SLL and FL patients) is recorded as “significantly reduced”. Besides, the “MPO and CD40 serum levels” value in data set [1] (CLL/SLL patients, reduced at baseline) is “normalized”. In addition, the “serum BDNF” value in data set [1] (FL patients, reduced at baseline) is listed as “normalized”. In data set [1] (aggressive lymphomas (DLBCL/MCL)), the “inhibition of serum inflammation markers” value is on record as “Limited inhibition”. In addition, the “serum HCC4, IL18, and MIG” value in data set [1] (elevated at baseline, both patient groups) was “unaffected”. In data set [2] (CLL/SLL patients, lower dose cohorts), the SSCmin achieved was in the range of 0.004 to 0.325 µM. The “SSCmin exposures at which tumor responses were more apparent” value in data set [2] (FL patients) was 0.729 to 1.219 µM. Further, the “SSCmin to SSCmax cerdulatinib serum concentrations” value in data set [2] (human, in vivo) is 0.32 to 0.38 µM. Further, the “SSCmin that was well tolerated” value in data set [2] (phase 1 dose-escalation) is listed as “up to 1 μM”. Further, the “average SSCmin” value in data set [2] (phase 2 dose 30 mg BID) was roughly 0.8 µM. Further, in data set [3], the CD5 expression entry is “reduced”; the CXCR4 expression entry was “enhanced”; the “expression of surface activation markers CD69 and CD86” value is “decreased expression”.
